Structures can show the parent of a compound that is named as a salt. Where two headings read alike, the source gives them in different places.
How the values were obtained:
5-HT2C receptor = target: T1, 5-HT2C receptor (Homo sapiens, UniProt P28335); assay: Human 5-HT2C functional assay (beta-arrestin2 recruitment, U2OS_HTR2C_β-Arrestin cells); type: cell-based; conditions: for EC50: beta-arrestin2 recruitment, U2OS_HTR2C_β-Arrestin cells, 1.5 h incubation, read-out: EC50 5-HT2C (potency in functional assay); for Emax: relative efficacy vs response to 10 μM 5-HT or maximal 5-HT effect (100%)
T1 construct: host or cells: U2OS
T1 sequence (P28335 33-458): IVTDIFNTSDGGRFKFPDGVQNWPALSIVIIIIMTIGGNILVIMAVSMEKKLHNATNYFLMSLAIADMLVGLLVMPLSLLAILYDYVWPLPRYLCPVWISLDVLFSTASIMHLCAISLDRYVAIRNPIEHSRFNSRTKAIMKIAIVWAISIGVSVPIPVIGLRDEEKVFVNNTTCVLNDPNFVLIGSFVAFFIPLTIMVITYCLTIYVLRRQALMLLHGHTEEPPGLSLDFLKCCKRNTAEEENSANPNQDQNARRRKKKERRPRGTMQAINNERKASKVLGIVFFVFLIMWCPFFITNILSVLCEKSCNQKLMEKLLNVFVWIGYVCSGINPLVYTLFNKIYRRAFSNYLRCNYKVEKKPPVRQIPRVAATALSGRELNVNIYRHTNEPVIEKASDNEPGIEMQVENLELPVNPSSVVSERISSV
T1 sequence (P32121 whole entry partner): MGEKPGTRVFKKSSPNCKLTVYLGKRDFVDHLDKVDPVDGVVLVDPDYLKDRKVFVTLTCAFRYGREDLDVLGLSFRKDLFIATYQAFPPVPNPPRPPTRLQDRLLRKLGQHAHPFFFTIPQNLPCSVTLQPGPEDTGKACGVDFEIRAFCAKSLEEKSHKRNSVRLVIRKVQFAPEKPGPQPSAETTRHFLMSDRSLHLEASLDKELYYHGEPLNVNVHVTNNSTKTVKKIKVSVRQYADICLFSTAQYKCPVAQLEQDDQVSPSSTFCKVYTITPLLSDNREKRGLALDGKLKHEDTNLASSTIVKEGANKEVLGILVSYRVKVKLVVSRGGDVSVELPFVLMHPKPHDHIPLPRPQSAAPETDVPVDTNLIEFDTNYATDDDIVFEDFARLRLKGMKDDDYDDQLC
Summary of the method: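 EC50 and relative efficacy came from 4-parameter variable-slope fits, normalised to 10 µM 5-HT or maximal 5-HT response (100%). Luminescent β-galactosidase enzyme-complementation signal was read after 1.5 h compound exposure in U2OS_HTR2C_β-Arrestin cells held in 1% serum medium from the prior day.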

[1] = Metabolic stability in human liver microsomes, unbound intrinsic clearance (Cl int/fu mic); type: in vitro ADME; conditions: pH 7.4, human liver microsomes 0.25 mg/mL, 0.5 μM compound, NADPH, read-out: Cl int, mic unb. (h) [l/h/kg] (unbound intrinsic clearance, human)
Summary of the method: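 Unbound intrinsic clearance is CLint divided by fu mic, with the unbound fraction measured by 4 h HTDialysis at 37 °C of 0.25 mg/ml microsomes spiked with 0.5 µM compound. For CLint, 0.5 µM compound was incubated with 0.25 mg/mL human microsomes and 1.0 mM NADPH (pH 7.4, 37 °C). Substrate loss over 30 min was measured by LC-MS/MS and t1/2 assumed first-order kinetics.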

Compound	EC50 (5-HT2C receptor) [nM]	Emax (5-HT2C receptor) [%]	CLint scaled at 0.5 μM ([1]; human, liver microsomes) [L/h/kg]	CLint scaled at 0.5 μM [1] [L/h/kg]
COc1nc(OCC2CC(F)(F)C2)c(F)cc1CN(C)C(=O)[C@@H]1CCCN1C [Example 106, (2S)—N-[[6-[(3,3-Difluorocyclobutyl)methoxy]-5-fluoro-2-methoxy-3-pyridyl]-methyl]-N,1-dimethyl-pyrrolidine-2-carboxamide Hydrochloride]	20 to 200	30 to 50	< 5	–
COc1nc(OC2CC(F)(F)C2)cnc1CNC(=O)[C@@H]1CCCN1 [Example 107, (2S)—N-[[5-(3,3-Difluorocyclobutoxy)-3-methoxy-pyrazin-2-yl]methyl]pyrrolidine-2-carboxamide; 2,2,2-trifluoroacetic Acid]	200 to 1000	> 70	< 5	–
COc1nc(OC2CCC(F)(F)CC2)cnc1CNC(=O)[C@@H]1CCCN1 [Example 108, (2S)—N-[[5-(4,4-Difluorocyclohexoxy)-3-methoxy-pyrazin-2-yl]methyl]pyrrolidine-2-carboxamide; 2,2,2-trifluoroacetic Acid]	20 to 200	> 70	< 5	–
COc1nc(OCC(C)(C(F)(F)F)C(F)(F)F)c(F)cc1CNC(=O)[C@@H]1CCCN1 [Example 109, (2S)—N-[[5-Fluoro-2-methoxy-6-[3,3,3-trifluoro-2-methyl-2-(trifluoromethyl)propoxy]-3-pyridyl]methyl]pyrrolidine-2-carboxamide Hydrochloride]	< 20	> 70	50 to 500	–
COc1nc(OCC(F)(F)C(F)(F)C(F)(F)F)c(F)cc1CNC(=O)[C@@H]1CCCN1 [Example 110, (2S)—N-[[5-Fluoro-6-(2,2,3,3,4,4,4-heptafluorobutoxy)-2-methoxy-3-pyridyl]-methyl]pyrrolidine-2-carboxamide Hydrochloride]	< 20	> 70	–	5 to 50
COc1nc(OC(C(F)(F)F)C(F)(F)F)c(F)cc1CNC(=O)[C@@H]1CCCN1 [Example 111, (2S)—N-[[5-Fluoro-2-methoxy-6-[2,2,2-trifluoro-1-(trifluoromethyl)ethoxy]-3-pyridyl]methyl]pyrrolidine-2-carboxamide Hydrochloride]	< 20	> 70	5 to 50	–
COc1nc(OC2CC(F)(F)C2(F)F)c(F)cc1CNC(=O)[C@@H]1CCCN1 (stereo partly drawn) [Example 112, (2S)—N-[[5-Fluoro-2-methoxy-6-(2,2,3,3-tetrafluorocyclobutoxy)-3-pyridyl]methyl]pyrrolidine-2-carboxamide; 2,2,2-trifluoroacetic Acid]	< 20	> 70	< 5	–
COc1nc(OCC(F)(F)F)c(F)cc1CN(C)C(=O)[C@@H]1CCCN1C [Example 113, (2S)—N-[[5-Fluoro-2-methoxy-6-(2,2,2-trifluoroethoxy)-3-pyridyl]methyl]-N,1-dimethyl-pyrrolidine-2-carboxamide Hydrochloride]	200 to 1000	30 to 50	< 5	–
COc1nc(OC2CCC(F)(F)CC2)c(F)cc1CN(C)C(=O)[C@@H]1CCCN1 [Example 114, (2S)—N-[[6-(4,4-Difluorocyclohexoxy)-5-fluoro-2-methoxy-3-pyridyl]methyl]-N-methyl-pyrrolidine-2-carboxamide Hydrochloride]	< 20	> 70	5 to 50	–
COc1nc(OCC2CC(F)(F)C2)c(F)cc1CN(C)C(=O)[C@@H]1CCCN1 [Example 115, (2S)—N-[[6-[(3,3-Difluorocyclobutyl)methoxy]-5-fluoro-2-methoxy-3-pyridyl]-methyl]-N-methyl-pyrrolidine-2-carboxamide Hydrochloride]	< 20	50 to 70	< 5	–
COc1nc(O[C@H]2CC[C@H](C(F)(F)F)CC2)c(F)cc1CN(C)C(=O)[C@@H]1CCCN1 [Example 116, (2S)—N-[[5-Fluoro-2-methoxy-6-[trans-4-(trifluoromethyl)cyclohexoxy]-3-pyridyl]methyl]-N-methyl-pyrrolidine-2-carboxamide Hydrochloride]	20 to 200	50 to 70	5 to 50	–
COc1nc(OCC(F)(F)C(F)(F)C(F)(F)F)c(F)cc1CN(C)C(=O)[C@@H]1CCCN1 [Example 117, (2S)—N-[[5-Fluoro-6-(2,2,3,3,4,4,4-heptafluorobutoxy)-2-methoxy-3-pyridyl]-methyl]-N-methyl-pyrrolidine-2-carboxamide Hydrochloride]	< 20	50 to 70	–	5 to 50
COc1nc(OC2CCC3(CC2)CC3(F)F)c(F)cc1CNC(=O)[C@@H]1CCCN1 (stereo partly drawn) [Example 118, (2S)—N-[[6-(2,2-Difluorospiro[2.5]octan-6-yl)oxy-5-fluoro-2-methoxy-3-pyridyl]methyl]pyrrolidine-2-carboxamide; 2,2,2-trifluoroacetic Acid]	< 20	> 70	5 to 50	–
COc1nc(O[C@H]2CC[C@@H](C(F)(F)F)CC2)c(F)cc1CN(C)C(=O)[C@@H]1CCCN1 [Example 119, (2S)—N-[[5-Fluoro-2-methoxy-6-[cis-4-(trifluoromethyl)cyclohexoxy]-3-pyridyl]-methyl]-N-methyl-pyrrolidine-2-carboxamide hydrochloride]	20 to 200	> 70	5 to 50	–
COc1nc(-c2ccccc2)c(F)cc1CNC(=O)[C@@H]1CCCN1 [Example 125, (2S)—N-[(5-Fluoro-2-methoxy-6-phenyl-3-pyridyl)methyl]pyrrolidine-2-carboxamide; 2,2,2-trifluoroacetic Acid]	200 to 1000	> 70	5 to 50	–
COc1nc(NC2CCC(F)(F)CC2)c(F)cc1CNC(=O)[C@@H]1CCCN1 [Example 126, (2S)—N-[[6-[(4,4-Difluorocyclohexyl)amino]-5-fluoro-2-methoxy-3-pyridyl]methyl]pyrrolidine-2-carboxamide; 2,2,2-trifluoroacetic Acid]	< 20	> 70	< 5	–
COc1nc(C2CC2)c(F)cc1CNC(=O)[C@@H]1CCCN1 [Example 127, (2S)—N-[(6-Cyclopropyl-5-fluoro-2-methoxy-3-pyridyl)methyl]pyrrolidine-2-carboxamide; 2,2,2-trifluoroacetic Acid]	200 to 1000	> 70	5 to 50	–
COc1nc(N2CCCCC2)c(F)cc1CNC(=O)[C@@H]1CCCN1 [Example 128, (2S)—N-[[5-Fluoro-2-methoxy-6-(1-piperidyl)-3-pyridyl]methyl]pyrrolidine-2-carboxamide]	20 to 200	> 70	< 5	–
COc1nc(NC2CCC(C(F)(F)F)CC2)c(F)cc1CNC(=O)[C@@H]1CCCN1 (stereo partly drawn) [Example 130, (2S)—N-[[5-Fluoro-2-methoxy-6-[[4-(trifluoromethyl)cyclohexyl]amino]-3-pyridyl]methyl]pyrrolidine-2-carboxamide]	< 20	> 70	5 to 50	–
COc1nc(NC2CCCCC2)c(F)cc1CNC(=O)[C@@H]1CCCN1 [Example 131, (2S)—N-[[6-(Cyclohexylamino)-5-fluoro-2-methoxy-3-pyridyl]methyl]pyrrolidine-2-carboxamide]	< 20	> 70	5 to 50	–

From patent US20190062305A1, “PYRIDYL OR PYRAZINYL COMPOUNDS CARRYING A METHYL-BOUND ALPHA-AMINO ACID AMIDE GROUP” (ABBVIE DEUTSCHLAND GMBH & CO. KG, priority 2015, published 2019)
